Where two headings read alike, the source gives them in different places.
Key:
[1] = target: T1, hDAT (Homo sapiens, UniProt Q01959); assay: Inhibition of [125I]RTI-55 binding, HEK-hDAT membranes; details: for fold decrease in hDAT affinity: compared to pentedrone
[2] = target: T2, hSERT (Homo sapiens, UniProt P31645); assay: Inhibition of [125I]RTI-55 binding, HEK-hSERT membranes
[3] = target: T3, hNET (Homo sapiens, UniProt P23975); assay: biochemical; type: binding
[4] = target: T1, hDAT; assay: Inhibition of [3H]DA uptake by HEK-hDAT cells; type: cell-based; details: for Ratio DAT/SERT: 1/(DAT IC50) divided by 1/(SERT IC50), uptake, higher = more DAT selective
[5] = target: T2, hSERT; assay: Inhibition of [3H]5-HT uptake by HEK-hSERT cells; type: cell-based; details: for fold increase in hSERT uptake potency: compared to pentedrone; for selectivity for SERT over DAT (uptake potency): uptake inhibition potencies
[6] = target: T3, hNET; assay: cell-based
[7] = target: T1, hDAT; assay: Drug-induced release of preloaded [3H]DA from HEK-hDAT cells; type: cell-based; details: for % maximum release ± sem, hDAT [3H]DA: relative to maximal AUC induced by METH (1 or 10 μM); for releasing efficacy at hDAT: [3H]DA release
[8] = target: T2, hSERT; assay: Drug-induced release of preloaded [3H]5-HT from HEK-hSERT cells; type: cell-based; details: for % maximum release ± sem, hSERT [3H]5-HT: relative to maximal AUC induced by METH (0.3–1 mM); for releasing efficacy at hSERT: [3H]5-HT release
[9] = target: T3, hNET; assay: Drug-induced release of preloaded [3H]NE from HEK-hNET cells; type: cell-based; details: for EC50: read-out: Drug-induced release of [3H]neurotransmitter EC50 ± sem, hNET [3H]NE, HEK-hNET cells; for % maximum release ± sem, hNET [3H]NE: relative to maximal AUC induced by METH (0.3 or 1 μM); for releasing efficacy at hNET: [3H]NE release
[10] = read-out: Inhibition of [125I]RTI-55 binding Ki ± sem, hDAT, HEK-hDAT membranes
[11] = read-out: Inhibition of [125I]RTI-55 binding Ki ± sem, hNET, HEK-hNET membranes
[12] = read-out: Inhibition of [3H]neurotransmitter uptake IC50 ± sem, hNET [3H]NE, HEK-hNET cells

T3 sequence (P23975 whole entry): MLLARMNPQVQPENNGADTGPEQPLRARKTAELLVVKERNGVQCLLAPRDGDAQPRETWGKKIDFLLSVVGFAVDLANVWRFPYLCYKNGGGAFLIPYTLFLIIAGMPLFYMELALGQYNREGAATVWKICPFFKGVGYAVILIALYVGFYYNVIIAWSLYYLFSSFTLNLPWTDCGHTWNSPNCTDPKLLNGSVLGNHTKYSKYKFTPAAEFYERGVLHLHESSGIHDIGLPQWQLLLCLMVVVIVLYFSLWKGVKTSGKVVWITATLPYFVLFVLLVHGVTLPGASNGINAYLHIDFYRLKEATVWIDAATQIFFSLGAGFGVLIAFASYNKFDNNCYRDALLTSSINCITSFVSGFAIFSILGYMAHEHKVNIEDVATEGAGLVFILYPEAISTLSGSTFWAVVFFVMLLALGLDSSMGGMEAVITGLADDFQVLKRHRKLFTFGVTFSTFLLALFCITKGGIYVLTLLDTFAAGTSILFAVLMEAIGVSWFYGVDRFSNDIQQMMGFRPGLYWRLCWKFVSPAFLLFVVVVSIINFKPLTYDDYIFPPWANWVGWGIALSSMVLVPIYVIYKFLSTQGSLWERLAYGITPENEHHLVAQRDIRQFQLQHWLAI
T2 sequence (P31645 whole entry): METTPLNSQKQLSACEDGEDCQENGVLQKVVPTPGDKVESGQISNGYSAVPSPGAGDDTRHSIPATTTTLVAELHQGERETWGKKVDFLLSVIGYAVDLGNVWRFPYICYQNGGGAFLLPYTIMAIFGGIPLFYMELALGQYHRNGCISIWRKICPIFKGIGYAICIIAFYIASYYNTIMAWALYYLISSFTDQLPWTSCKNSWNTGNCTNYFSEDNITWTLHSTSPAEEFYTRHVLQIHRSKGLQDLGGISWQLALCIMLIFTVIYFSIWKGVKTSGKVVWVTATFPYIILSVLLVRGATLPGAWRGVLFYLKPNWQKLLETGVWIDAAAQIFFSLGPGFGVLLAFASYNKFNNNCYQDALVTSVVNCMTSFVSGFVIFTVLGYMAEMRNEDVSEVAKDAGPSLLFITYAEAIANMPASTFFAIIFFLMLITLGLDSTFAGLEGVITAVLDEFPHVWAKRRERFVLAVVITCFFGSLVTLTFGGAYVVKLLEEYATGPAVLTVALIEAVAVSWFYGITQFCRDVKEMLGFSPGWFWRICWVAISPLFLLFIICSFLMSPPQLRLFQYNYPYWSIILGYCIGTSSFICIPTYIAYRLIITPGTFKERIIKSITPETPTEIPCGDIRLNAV
T1 sequence (Q01959 whole entry): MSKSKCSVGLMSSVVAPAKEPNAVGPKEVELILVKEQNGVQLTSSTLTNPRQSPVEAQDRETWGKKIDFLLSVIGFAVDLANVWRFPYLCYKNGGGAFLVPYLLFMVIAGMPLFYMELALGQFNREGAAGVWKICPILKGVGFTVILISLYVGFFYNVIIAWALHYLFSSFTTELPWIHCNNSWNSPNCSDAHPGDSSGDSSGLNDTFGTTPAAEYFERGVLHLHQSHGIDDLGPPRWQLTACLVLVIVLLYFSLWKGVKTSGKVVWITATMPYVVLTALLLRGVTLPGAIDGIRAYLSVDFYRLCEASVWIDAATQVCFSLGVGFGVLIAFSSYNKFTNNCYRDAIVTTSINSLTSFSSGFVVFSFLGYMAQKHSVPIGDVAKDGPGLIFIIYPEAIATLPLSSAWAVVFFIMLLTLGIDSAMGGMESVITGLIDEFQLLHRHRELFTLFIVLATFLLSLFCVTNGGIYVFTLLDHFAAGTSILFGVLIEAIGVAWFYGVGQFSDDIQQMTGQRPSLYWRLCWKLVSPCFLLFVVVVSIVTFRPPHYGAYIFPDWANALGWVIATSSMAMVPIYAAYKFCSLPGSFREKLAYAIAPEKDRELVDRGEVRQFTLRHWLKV

Compound	Ratio DAT/SERT [4]	Ki [1, 10] [µM]	Ki [3, 11] [µM]	IC50 [6, 12] [µM]	% maximum release ± sem, hDAT [3H]DA [7] [%]	% maximum release ± sem, hSERT [3H]5-HT [8] [%]	EC50 [9] [µM]	% maximum release ± sem, hNET [3H]NE [9] [%]	also measured
CCCCC(C(=O)c1ccc(F)cc1)N1CCCC1 (stereo not drawn) [4-F-α-PHP, 4’-fluoro-α–pyrrolidinohexanophenone]	240	–	–	–	–	–	–	–	Ki [1]: 0.122 ± 0.027 µM; Ki [2]: 8.01 ± 0.84 µM; Ki [3]: 1.73 ± 0.25 µM; IC50 [4]: 0.0382 ± 0.0044 µM; IC50 [5]: 9.11 ± 0.54 µM; IC50 [6]: 0.218 ± 0.029 µM
CCCC(NCC)C(=O)c1ccc(C)cc1 (stereo not drawn) [4-MEAP, 4-methyl-α-ethylaminopentiophenone]	6.4	0.123 ± 0.026	0.576 ± 0.085	0.083 ± 0.018	–	–	–	–	fold increase in hSERT affinity ([2]; compared to pentedrone): 20 fold; fold decrease in hDAT selectivity ([4]; compared to pentedrone): 8 fold; fold decrease in DAT selectivity ([4]; compared to α-EPP): 10 fold; fold increase in hSERT uptake potency [5]: 8 fold
CC(C(=O)c1ccc2c(c1)OCO2)N(C)C (stereo not shown) [Dimethylone, bk-MDDMA]	>4.1	4.21 ± 0.27	> 10	4.2 ± 0.88	<1	<1	> 10	9.9 ± 2.2	–
CNC(C)C(=O)c1ccccc1 (stereo not shown) [MCAT, methcathinone, reference compound]	130	7.52 ± 0.99	5.96 ± 0.61	0.0452 ± 0.0042	79.0 ± 3.2	65.0 ± 0.6	0.4 ± 0.12	75 ± 10	fold lower release potency at SERT ([8]; compared to release potency at NET and DAT): 50 fold
CCCNC(CCC)C(=O)c1ccccc1 (stereo not drawn) [N-propyl pentedrone, α-propylaminopentiophenone]	330	0.389 ± 0.067	3.76 ± 0.82	0.306 ± 0.079	–	–	–	–	–
CNC(C)C(=O)c1cccc(C)c1 (stereo not shown) [3-MMC, 3-methylmethcathinone]	10	6.33 ± 0.72	2.85 ± 0.72	0.084 ± 0.023	–	–	–	–	fold higher hSERT affinity ([2]; compared to MCAT): ~ 40 fold; fold higher hSERT uptake potency ([5]; compared to MCAT): 6.5 fold
CCCCC(C(=O)c1ccc(C)cc1)N1CCCC1 (stereo not drawn) [4-Me-α-PHP, 4’-methyl-α–pyrrolidinohexanophenone]	120	–	–	–	–	–	–	–	Ki [1]: 0.023 ± 0.0062 µM; Ki [2]: 4.78 ± 0.26 µM; Ki [3]: 0.75 ± 0.16 µM; IC50 [4]: 0.0132 ± 0.0036 µM; IC50 [5]: 1.58 ± 0.4 µM; IC50 [6]: 0.042 ± 0.011 µM
CCC(C(=O)c1ccc2c(c1)OCO2)N(C)C (stereo not shown) [Dibutylone, bk-DMBDB]	>32	0.581 ± 0.076	8.4 ± 2.1	0.923 ± 0.044	–	–	–	–	–
CCCC(C(=O)c1ccc2c(c1)CCCC2)N1CCCC1 (stereo not drawn) [TH-PVP, 3’,4’-tetramethylene-α-pyrrolidinovalerophenone]	0.087	3.09 ± 0.3	6.95 ± 0.34	2.13 ± 0.081	<1	<1	> 10	<1	selectivity for SERT over DAT (uptake potency) [5]: 12 fold; releasing efficacy at hDAT [7]: minimal to no releasing efficacy; releasing efficacy at hSERT [8]: minimal to no releasing efficacy; releasing efficacy at hNET [9]: minimal to no releasing efficacy
CCCC(NC)C(=O)c1ccc(Cl)cc1 (stereo not shown) [4-CPD, 4-chloro pentedrone]	1.3	1.62 ± 0.4	4.54 ± 0.89	0.47 ± 0.14	–	–	–	–	fold decrease in hDAT affinity [1]: 4- to 5 fold; fold increase in hSERT uptake potency [5]: 15- to 17 fold
CCCNC(C)C(=O)c1ccc2c(c1)OCO2 (stereo not shown) [PRONE, 3,4-methylenedioxy-N-propylcathinone]	0.95	6.8 ± 1.9	22.5 ± 8.5	6.04 ± 0.89	–	–	–	–	–
CCCC(C(=O)c1ccc(F)cc1)N1CCCC1 (stereo not drawn) [4-F-α-PVP, 4-fluoro-α–pyrrolidinopentiophenone]	360	0.376 ± 0.07	–	–	–	–	–	–	Ki ([3]; read-out: Inhibition of [125I]RTI-55 binding Ki ± sem, hNET): 1.1 µM; IC50 ([6]; read-out: Inhibition of [3H]neurotransmitter uptake IC50 ± sem, hNET [3H]NE): 0.118 µM
CCCC(C(=O)c1ccc2c(c1)OCO2)N(C)C (stereo not shown) [bk-DMBDP, N,N-dimethylpentylone]	11	0.354 ± 0.073	2 ± 0.14	0.212 ± 0.068	–	–	–	–	–
CCCCCCC(C(=O)c1ccccc1)N1CCCC1 (stereo not shown) [PV9, 1-phenyl-2-(pyrrolidin-1-yl)octan-1-one]	>150	–	–	–	–	–	–	–	Ki [1]: 0.018 ± 0.0037 µM; Ki [2]: 2.86 ± 0.43 µM; Ki [3]: 0.468 ± 0.033 µM; IC50 [4]: 0.0502 ± 0.0066 µM; IC50 [5]: > 7.4 µM
CC(N)Cc1ccc2ccoc2c1 (stereo not drawn) [6-APB, α-methyl-6-benzofuranethanamine]	2.4	1.04 ± 0.16	2.45 ± 0.2	0.0198 ± 0.0044	68.2 ± 9.0	119 ± 16	0.051 ± 0.012	69 ± 12	releasing efficacy at hSERT [8]: fully efficacious releaser
CCCC(NC)C(=O)c1ccc(C)cc1 (stereo not shown) [4-MPD, 4-methyl pentedrone]	–	1.45 ± 0.31	3.39 ± 0.48	0.307 ± 0.061	–	–	–	–	fold decrease in hDAT affinity [1]: 4- to 5 fold; fold increase in hSERT uptake potency [5]: 15- to 17 fold
CCNC(C)Cc1ccc2ccoc2c1 (stereo not drawn) [6-EAPB, N-ethyl-α-methyl-6-benzofuranethanamine]	1.4	0.089 ± 0.022	0.772 ± 0.044	0.042 ± 0.014	–	–	–	–	–
CCCCC(NCC)C(=O)c1ccccc1 (stereo not drawn) [N-Et-Hexedrone, α-ethylaminohexanophenone]	100	0.171 ± 0.038	1.26 ± 0.043	0.0978 ± 0.0083	–	–	–	–	–
CCCC(NCC)C(=O)c1ccc2c(c1)OCO2 (stereo not shown) [N-Et pentylone, N-ethyl pentylone]	8.4	0.102 ± 0.015	2.38 ± 0.62	0.114 ± 0.029	<1	7.2 ± 1.4	–	15.6 ± 8.4	fold increase in hDAT/hSERT selectivity ([4]; compared to pentylone): ~ 2 fold
CCCC(C(=O)c1ccc(Cl)cc1)N1CCCC1 (stereo not drawn) [4-Cl-α-PVP, 4’-chloro-α–pyrrolidinopentiophenone]	83	0.061 ± 0.015	0.281 ± 0.016	0.0291 ± 0.0067	<1	<1	> 10	9.4 ± 6.0	releasing efficacy at hDAT [7]: minimal to no releasing efficacy; releasing efficacy at hSERT [8]: minimal to no releasing efficacy; releasing efficacy at hNET [9]: minimal to no releasing efficacy
CCCC(NCC)C(=O)c1ccccc1 (stereo not drawn) [α-EPP, α-ethylaminopentiophenone]	64	0.182 ± 0.022	0.7 ± 0.18	0.101 ± 0.024	–	–	–	–	–
CNC(C)Cc1ccc2ccoc2c1 (stereo not drawn) [6-MAPB, N,α-dimethyl-6-benzofuranethanamine]	9.5	0.599 ± 0.0099	1.48 ± 0.27	0.0331 ± 0.002	40.6 ± 8.7	107.0 ± 2.3	0.64 ± 0.21	60 ± 11	releasing efficacy at hSERT [8]: fully efficacious
CCNC(C)C(=O)c1ccc(Cl)cc1 (stereo not shown) [4-CEC, 4-Cl-ethcathinone]	0.39	4.17 ± 0.53	16.3 ± 5.7	1.72 ± 0.24	1.17 ± 0.05	–	> 100	5.9 ± 2.5	selectivity for SERT over DAT (uptake potency) [5]: 3 fold; releasing efficacy at hDAT [7]: minimal releasing efficacy; releasing efficacy at hSERT [8]: full releasing efficacy; releasing efficacy at hNET [9]: minimal releasing efficacy

Reference: PMC6500773 (Psychopharmacology, 2018)
